ChEMBL document CHEMBL4715829, “Heterodimeric Rifampicin-Tobramycin conjugates break intrinsic resistance of Pseudomonas aeruginosa to doxycycline and chloramphenicol in vitro and in a Galleria mellonella in vivo model” (Eur J Med Chem, 2019)

Columns and labels:
[1] = tested on: Pseudomonas aeruginosa; test: Antibacterial activity against Pseudomonas aeruginosa 262-101856 assessed as fractional inhibitory concentration incubated for 18 hrs in presence of tigecycline by broth microdilution assay; assay type: functional
[2] = tested on: Pseudomonas aeruginosa; test: Potentiation of chloramphenicol-induced antibacterial activity against Pseudomonas aeruginosa 91433 assessed as fold change in chloramphenicol MIC at 9.8 uM incubated for 18 hrs in presence of chloramphenicol by broth microdilution assay relative to control; assay type: functional
[3] = tested on: Pseudomonas aeruginosa; test: Antibacterial activity against Pseudomonas aeruginosa 101243 assessed as fractional inhibitory concentration index incubated for 18 hrs in presence of minocycline by broth microdilution assay; assay type: functional
[4] = tested on: Pseudomonas aeruginosa; test: Potentiation of doxycycline-induced antibacterial activity against Pseudomonas aeruginosa 100036 assessed as fold change in doxycycline MIC at 9.8 uM incubated for 18 hrs in presence of doxycycline by broth microdilution assay relative to control; assay type: functional
[5] = Toxicity in Galleria mellonella larvae assessed as larval survival at 200 mg/kg measured after 96 hrs; assay type: organism-based; conditions: in vivo
[6] = tested on: Pseudomonas aeruginosa; test: Antibacterial activity against Pseudomonas aeruginosa 260-97103 assessed as fractional inhibitory concentration index incubated for 18 hrs in presence of rifampicin by broth microdilution assay; assay type: functional
[7] = tested on: Pseudomonas aeruginosa; test: Antibacterial activity against Pseudomonas aeruginosa 101885 assessed as potentiation of doxycycline-induced antibacterial activity by measuring doxycycline MIC at 9.8 uM incubated for 18 hrs in presence of doxycycline by broth microdilution assay (reference value: 64 ug/ml); assay type: functional
[8] = tested on: Pseudomonas aeruginosa; test: Antibacterial activity against Pseudomonas aeruginosa 260-97103 assessed as fractional inhibitory concentration incubated for 18 hrs in presence of rifampicin by broth microdilution assay; assay type: functional
[9] = tested on: Klebsiella pneumoniae; test: Potentiation of doxycycline-induced antibacterial activity against Klebsiella pneumoniae ATCC 16381 assessed as fold change in doxycycline MIC at 9.8 uM incubated for 18 hrs in presence of doxycycline by broth microdilution assay relative to control; assay type: functional
[10] = tested on: Pseudomonas aeruginosa; test: Potentiation of doxycycline-induced antibacterial activity against Pseudomonas aeruginosa PAO750 harboring MexAB-OprM, MexCD-OprJ, MexEF-OprN, Mex JK, MexXY and the OM protein OpmH deletion mutant assessed as fold change in doxycycline MIC at <=9.8 uM incubated for 18 hrs in presence of doxycycline by broth microdilution assay; assay type: functional; conditions: dose microM <=9.8
[11] = tested on: Pseudomonas aeruginosa; test: Potentiation of doxycycline-induced antibacterial activity against wild type Pseudomonas aeruginosa PAO1 assessed as fold change in doxycycline MIC at <=9.8 uM incubated for 18 hrs in presence of doxycycline by broth microdilution assay; assay type: functional; conditions: dose microM <=9.8
[12] = tested on: Pseudomonas aeruginosa; test: Antibacterial activity against Pseudomonas aeruginosa 260-97103 assessed as fractional inhibitory concentration incubated for 18 hrs in presence of minocycline by broth microdilution assay; assay type: functional
[13] = tested on: Pseudomonas aeruginosa; test: Antibacterial activity against Pseudomonas aeruginosa 259-96918 assessed as potentiation of doxycycline-induced antibacterial activity by measuring doxycycline MIC at 9.8 uM incubated for 18 hrs in presence of doxycycline by broth microdilution assay (reference value: 32 ug/ml); assay type: functional
[14] = tested on: Pseudomonas aeruginosa; test: Antibacterial activity against Pseudomonas aeruginosa 262-101856 assessed as fractional inhibitory concentration index incubated for 18 hrs in presence of rifampicin by broth microdilution assay; assay type: functional
[15] = tested on: Klebsiella pneumoniae; test: Potentiation of chloramphenicol-induced antibacterial activity against Klebsiella pneumoniae ATCC 16381 assessed as fold change in chloramphenicol MIC at 9.8 uM incubated for 18 hrs in presence of chloramphenicol by broth microdilution assay relative to control; assay type: functional
[16] = tested on: Pseudomonas aeruginosa; test: Antibacterial activity against Pseudomonas aeruginosa 100036 assessed as fractional inhibitory concentration incubated for 18 hrs in presence of tigecycline by broth microdilution assay; assay type: functional
[17] = tested on: Pseudomonas aeruginosa; test: Antibacterial activity against Pseudomonas aeruginosa 260-97103 infected in Galleria mellonella larvae assessed as mortality of larvae at 100 mg/kg administered at 3 hrs post-infection and measured every 6 hrs for 36 hrs; assay type: functional
[18] = tested on: Enterobacter cloacae; test: Potentiation of chloramphenicol-induced antibacterial activity against Enterobacter cloacae ATCC 117029 assessed as fold change in chloramphenicol MIC at 9.8 uM incubated for 18 hrs in presence of chloramphenicol by broth microdilution assay relative to control; assay type: functional
[19] = tested on: Pseudomonas aeruginosa; test: Antibacterial activity against Pseudomonas aeruginosa 262-101856 assessed as reduction in bacterial growth by measuring doxycycline MIC at 8 ug/ml incubated for 18 hrs in presence of doxycycline by broth microdilution assay (reference value: 1024 ug/ml); assay type: functional; conditions: dose 8 µg/ml
[20] = tested on: Pseudomonas aeruginosa; test: Antibacterial activity against Pseudomonas aeruginosa 100036 assessed as reduction in bacterial growth by measuring chloramphenicol MIC at 8 ug/ml incubated for 18 hrs in presence of chloramphenicol by broth microdilution assay (reference value: 1024 ug/ml); assay type: functional; conditions: dose 8 µg/ml
[21] = tested on: Pseudomonas aeruginosa; test: Antibacterial activity against Pseudomonas aeruginosa 91433 assessed as potentiation of doxycycline-induced antibacterial activity by measuring doxycycline MIC at 7.6 uM incubated for 18 hrs in presence of doxycycline by broth microdilution assay (reference value: 32 ug/ml); assay type: functional
[22] = tested on: Enterobacter cloacae; test: Potentiation of doxycycline-induced antibacterial activity against Enterobacter cloacae ATCC 117029 assessed as fold change in doxycycline MIC at 7.6 uM incubated for 18 hrs in presence of doxycycline by broth microdilution assay relative to control; assay type: functional
[23] = tested on: Pseudomonas aeruginosa; test: Potentiation of doxycycline-induced antibacterial activity against Pseudomonas aeruginosa 114228 assessed as fold change in doxycycline MIC at 7.6 uM incubated for 18 hrs in presence of doxycycline by broth microdilution assay relative to control; assay type: functional
[24] = tested on: Pseudomonas aeruginosa; test: Potentiation of doxycycline-induced antibacterial activity against Pseudomonas aeruginosa 101885 assessed as fold change in doxycycline MIC at 7.6 uM incubated for 18 hrs in presence of doxycycline by broth microdilution assay relative to control; assay type: functional
[25] = tested on: Pseudomonas aeruginosa; test: Antibacterial activity against Pseudomonas aeruginosa 262-101856 assessed as potentiation of doxycycline-induced antibacterial activity by measuring doxycycline MIC at 7.6 uM incubated for 18 hrs in presence of doxycycline by broth microdilution assay (reference value: 1024 ug/ml); assay type: functional
[26] = tested on: Pseudomonas aeruginosa; test: Potentiation of chloramphenicol-induced antibacterial activity against Pseudomonas aeruginosa 260-97103 assessed as fold change in chloramphenicol MIC at 7.6 uM incubated for 18 hrs in presence of chloramphenicol by broth microdilution assay relative to control; assay type: functional
[27] = tested on: Pseudomonas aeruginosa; test: Potentiation of chloramphenicol-induced antibacterial activity against Pseudomonas aeruginosa 101243 assessed as fold change in chloramphenicol MIC at 7.6 uM incubated for 18 hrs in presence of chloramphenicol by broth microdilution assay relative to control; assay type: functional
[28] = tested on: Acinetobacter baumannii; test: Potentiation of chloramphenicol-induced antibacterial activity against Acinetobacter baumannii ATCC 17978 assessed as fold change in chloramphenicol MIC at 7.6 uM incubated for 18 hrs in presence of chloramphenicol by broth microdilution assay relative to control; assay type: functional
[29] = tested on: Pseudomonas aeruginosa; test: Antibacterial activity against Pseudomonas aeruginosa 259-96918 assessed as reduction in bacterial growth by measuring doxycycline MIC at 2 ug/ml incubated for 18 hrs in presence of doxycycline by broth microdilution assay (reference value: 32 ug/ml); assay type: functional; conditions: dose 2 µg/ml
[30] = tested on: Pseudomonas aeruginosa; test: Antibacterial activity against Pseudomonas aeruginosa 100036 assessed as reduction in bacterial growth by measuring chloramphenicol MIC at 4 ug/ml incubated for 18 hrs in presence of chloramphenicol by broth microdilution assay (reference value: 1024 ug/ml); assay type: functional; conditions: dose 4 µg/ml

CO[C@H]1/C=C/O[C@@]2(C)Oc3c(C)c(O)c4c(O)c(c(/C=N/N5CCN(Cc6cn(CCCCCCO[C@@H]7[C@@H](O[C@H]8O[C@H](CO)[C@@H](O)[C@H](N)[C@H]8O)[C@H](N)C[C@H](N)[C@H]7O[C@H]7O[C@H](CN)[C@@H](O)C[C@H]7N)nn6)CC5)c(O)c4c3C2=O)NC(=O)/C(C)=C\C=C\[C@H](C)[C@H](O)[C@@H](C)[C@@H](O)[C@@H](C)[C@H](OC(C)=O)[C@@H]1C.Cl.Cl.Cl.Cl.Cl
FIC [1]: <0.063 | fold change (FC) [2]: 4 | fractional inhibitory concentration index (FICI) [3]: <0.31 | fold change (FC) [4]: 4 | survival at 96 h [5]: 97% | fractional inhibitory concentration index (FICI) [6]: <0.16 | MIC [7]: 1 µg/mL | FIC [8]: <0.125 | fold change (FC) [9]: 0 | fold change (FC) [10]: 4 | fold change (FC) [11]: 32 | FIC [12]: <0.125 | MIC [13]: 1 µg/mL | fractional inhibitory concentration index (FICI) [14]: <0.51 | fold change (FC) [15]: 0 | FIC [16]: 0.004 | mortality at 100 mg/kg [17]: 100% | fold change (FC) [18]: 0

NC[C@H]1O[C@H](O[C@H]2[C@H](O)[C@@H](O[C@H]3O[C@H](CO)[C@@H](O)[C@H](N)[C@H]3O)[C@H](N)C[C@@H]2N)[C@H](N)C[C@@H]1O [TOBRAMYCIN]
MIC [19]: 1020 µg/mL | MIC [20]: 1020 µg/mL

CO[C@H]1/C=C/O[C@@]2(C)Oc3c(C)c(O)c4c(O)c(c(/C=N/N5CCN(Cc6cn(CCCCCCCCCCCCO[C@@H]7[C@@H](O[C@H]8O[C@H](CO)[C@@H](O)[C@H](N)[C@H]8O)[C@H](N)C[C@H](N)[C@H]7O[C@H]7O[C@H](CN)[C@@H](O)C[C@H]7N)nn6)CC5)c(O)c4c3C2=O)NC(=O)/C(C)=C\C=C\[C@H](C)[C@H](O)[C@@H](C)[C@@H](O)[C@@H](C)[C@H](OC(C)=O)[C@@H]1C.O=C(O)C(F)(F)F.O=C(O)C(F)(F)F.O=C(O)C(F)(F)F.O=C(O)C(F)(F)F.O=C(O)C(F)(F)F
MIC [21]: 0.25 µg/mL | fold change (FC) [22]: 0 | fold change (FC) [23]: 4 | fold change (FC) [24]: 4 | MIC [25]: 8 µg/mL | fold change (FC) [26]: 4 | fold change (FC) [27]: 4 | fold change (FC) [28]: 0

CO[C@H]1/C=C/O[C@@]2(C)Oc3c(C)c(O)c4c(O)c(c(/C=N/N5CCN(C)CC5)c(O)c4c3C2=O)NC(=O)/C(C)=C\C=C\[C@H](C)[C@H](O)[C@@H](C)[C@@H](O)[C@@H](C)[C@H](OC(C)=O)[C@@H]1C [RIFAMPIN]
MIC [29]: 32 µg/mL | MIC [30]: 1020 µg/mL
